Like-named read-outs stand apart in the source and are kept apart here.
Key:
[1] = target: T1, PDE4Bcat (Homo sapiens, UniProt Q07343); assay: Inhibition of phosphodiesterase activity, [3H]-cAMP hydrolysis, recombinant PDE4Bcat; type: biochemical; conditions: cAMP 2 μmol/L, read-out: IC50(μmol/L) PDE4
T1 construct: catalytic domain (indicated as “cat,” hereinafter), PDE4Bcat; made in house; host or cells: Sf9 insect cells (baculovirus, Bac-to-Bac)
Experimental: (§1) RT-PCR was performed to isolate cDNA fragments of PDE3A catalytic domain (indicated as “cat,” hereinafter), PDE4Bcat, PDE5Acat and PDE10A1 from human RNA. Using Gateway system (Invitrogen) and Bac-to-Bac (registered trademark) Baculovirus Expression system (Invitrogen), the isolated cDNA fragments were transfected into Sf9 insect cells for expression of the PDE proteins. The recombinant PDE3Acat, PDE4Bcat, PDE5Acat and PDE10A1 proteins were isolated from culture supernatant or cell extracts of Sf9 cells expressed high levels of these proteins by ion-exchange chromatography and used for the following experiments.
(§2) 4 mmol/L solution of each test compound was serially diluted 4-fold with 15% DMSO solution to prepare the solutions with concentrations of 15 nmol/L to 4 mmol/L (final concentrations=1.5 nmol/L-400 μmol/L). 10 μL of each test compound solution was added to each well of 96 plate with 10 μL of [^3H]-cAMP or [^3H]-cGMP solution, diluted with a buffer (40 mmol/L Tris-HCl (pH 7.4), 10 mmol/L MgCl2) to the concentration shown in Table 20 and 40 μL of each of the human recombinant PDE proteins in units shown in Table 20. The plate was incubated at 30° C. for 20 min, and then at 65° C. for 2 min. Subsequently, 25 μL of 1 mg/mL 5′-nucleotidase (Crotalus atrox venom, Sigma) was added to each well and the plate was incubated at 30° C. for 10 min. 200 μL of Dowex solution (300 mg/mL Dowex 1×8-400 (Sigma Aldrich), 33% ethanol) was then added to each well and the plate was shaken at 4° C. for 20 min. Subsequently, 200 μL of MicroScint 20 (Packard) was added to each well and the radioactivity of each sample was measured by a scintillation counter (Topcount, Packard) IC50 was calculated by GraphPad Prism v3.03 (GraphPad Software).

[2] = target: T2, PDE3A catalytic domain (PDE3Acat) (Homo sapiens, UniProt Q14432); assay: Inhibition of phosphodiesterase activity, [3H]-cAMP hydrolysis, recombinant PDE3Acat; type: biochemical; conditions: cAMP 2 μmol/L
T2 construct: cDNA fragments of PDE3A catalytic domain (indicated as “cat,” hereinafter); made in house; host or cells: Sf9 insect cells (baculovirus, Bac-to-Bac)
T2 sequence (Q14432 674-1093 limits assumed): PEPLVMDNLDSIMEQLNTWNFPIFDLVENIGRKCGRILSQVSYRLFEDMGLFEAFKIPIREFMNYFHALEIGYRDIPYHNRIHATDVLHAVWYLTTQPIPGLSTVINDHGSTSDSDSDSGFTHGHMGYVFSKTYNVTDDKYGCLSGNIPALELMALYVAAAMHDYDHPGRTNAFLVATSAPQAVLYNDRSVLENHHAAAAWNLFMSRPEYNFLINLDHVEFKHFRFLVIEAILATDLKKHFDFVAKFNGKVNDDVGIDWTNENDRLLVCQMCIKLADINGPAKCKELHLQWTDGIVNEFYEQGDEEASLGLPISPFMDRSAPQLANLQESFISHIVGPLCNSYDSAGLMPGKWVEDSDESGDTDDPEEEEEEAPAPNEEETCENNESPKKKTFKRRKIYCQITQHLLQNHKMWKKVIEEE
Experimental: as §1, §2

[3] = target: T3, PDE10A1 (Homo sapiens, UniProt Q9Y233); assay: Inhibition of phosphodiesterase activity, [3H]-cAMP hydrolysis, recombinant PDE10A1; type: biochemical; conditions: human recombinant PDE10A1, cAMP 0.2 μmol/L; read-out: IC50(μmol/L) PDE10
T3 construct: made in house; host or cells: Sf9 insect cells (baculovirus, Bac-to-Bac)
T3 sequence (Q9Y233 1-779 isoform Q9Y233-1): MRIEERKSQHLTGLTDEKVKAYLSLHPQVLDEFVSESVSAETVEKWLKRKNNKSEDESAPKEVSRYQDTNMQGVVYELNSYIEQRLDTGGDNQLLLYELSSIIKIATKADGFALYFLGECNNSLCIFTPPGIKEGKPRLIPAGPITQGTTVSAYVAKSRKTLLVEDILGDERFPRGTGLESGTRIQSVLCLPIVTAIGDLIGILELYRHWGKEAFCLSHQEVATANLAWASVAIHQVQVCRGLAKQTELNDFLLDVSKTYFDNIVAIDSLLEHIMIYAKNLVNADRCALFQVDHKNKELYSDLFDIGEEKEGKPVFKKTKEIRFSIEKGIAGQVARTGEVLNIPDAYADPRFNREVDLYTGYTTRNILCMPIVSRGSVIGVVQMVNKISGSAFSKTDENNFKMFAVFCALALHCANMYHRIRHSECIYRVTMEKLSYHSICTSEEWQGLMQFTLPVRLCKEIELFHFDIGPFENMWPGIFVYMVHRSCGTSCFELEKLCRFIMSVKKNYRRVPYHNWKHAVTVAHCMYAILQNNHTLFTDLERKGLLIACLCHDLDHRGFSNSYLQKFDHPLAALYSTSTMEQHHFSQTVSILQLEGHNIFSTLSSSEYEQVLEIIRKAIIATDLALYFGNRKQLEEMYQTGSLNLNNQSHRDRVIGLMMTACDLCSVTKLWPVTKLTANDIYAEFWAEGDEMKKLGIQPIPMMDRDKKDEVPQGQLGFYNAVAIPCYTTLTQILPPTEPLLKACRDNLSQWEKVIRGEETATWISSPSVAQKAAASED
Experimental: as §1, §2

[4] = target: PDE5Acat (Homo sapiens, UniProt O76074); assay: Inhibition of phosphodiesterase activity, [3H]-cGMP hydrolysis, recombinant PDE5Acat; type: biochemical; conditions: cGMP 2 μmol/L, read-out: IC50(μmol/L) PDE5
Experimental: as §1, §2

[5] = tested on: histamine-induced bronchoconstriction; assay: Histamine-induced bronchoconstriction in guinea pigs; type: in vivo, guinea pig; conditions: Cavia porcellus, iv, 0.5 min, 30 seconds after administration, histamine 12.5 μg/kg i.v.; for inhibition in vivo at 1 mg/kg: test compound 1 mg/kg i.v.; for inhibition in vivo at 0.1 mg/kg: values in brackets: test compound 0.1 mg/kg, i.v.
Experimental: Guinea pigs were anesthetized with pentobarbital (30 mg/kg, i.p.). A cannula for IV administeration, a cannula for collecting blood and measurement of blood pressure and a trachea cannula were inserted into the left exterior jugular vein, right interior carotid artery and trachea, respectively. The animals were placed under artificial respiration at 60 times/min and 10 mL/kg/stroke. The airflow through the branch of the tracheal cannula was measured by a bronchospasm transducer (Ugo-Basile) and recorded on a computer via Power Lab (ADInstruments Japan). The animals were immobilized with gallamine (10 mg/kg, i.v.), then administered histamine at 10-minute intervals (12.5 μg/kg, i.v.). […] To examine the inhibitory activity of test compound, the histamine-induced bronchoconstriction was measured after 30 seconds of drug administration. The bronchoconstriction was recorded as the change of the airflow: The results were shown by percentages of the maximum histamine-induced bronchoconstriction. Each test compound was prepared as a 10 mg/mL solution in DMSO. Gallamine was prepared as a 10 mg/mL solution in physiological saline. Histamine was prepared as a 1 mg/mL solution in physiological saline, which was diluted with physiological saline to 62.5 μg/mL for use.

[6] = tested on: isolated guinea pig tracheal smooth muscles; assay: Relaxant effect on histamine-induced contraction of isolated guinea pig tracheal smooth muscles; conditions: Cavia porcellus; histamine 10^-5 mol/L contraction, relaxation as % of maximum response to papaverine 10^-4 mol/L; read-out: IC50(μmol/L), concentration required to 50% relaxation
Experimental: Guinea pigs were exsanguinated and the trachea was immediately isolated and cut into 2 to 3 cartilage ring segments to prepare tracheal ring preparations. The tracheal rings were suspended in 10 mL of Tyrode's solution bubbled with a gaseous mixture of 95% O2+5% CO2 at 37° C. The composition of the Tyrode's solution (mM) was as follows: NaCl 136.9, KCl 2.7, CaCl2 1.8, MgCl2 1.0, NaH2PO4 0.4, NaHCO3 11.9 and Gucose 5.6. The contractile response was measured by an isometric transducer (UM-203, KISHIMOTO) and recorded on a recorder ([…] SERVOCORDER SR6221). After about 1 hour incubation with 1.5 g of resting tention, histamine (10^−5 mol/L) was added to induce the contractile response. After confirming the response, the preparations were washed with Tyrode's solution (10 mL×3). Then indomethacin (10^−5 mol/L) was applied and the preparations were equilibrated for at least 30 min under 1.5 g tension. Subsequently, histamine (10^−5 mol/L) was applied. After the contraction reached a steady state, each compound was added in a cumulative manner (10^−8 mol/L-3×10^−5 mol/L). Each compound was prepared as a 10^−1 mol/L solution in DMSO, which was diluted with distilled water for use. After addition of test compounds, papaverine (10^−4 mol/L) was added to determine the maximum relaxation of the preparation. Relaxant response of test compounds were expressed as a percentage of the maximum response to papaverine. IC50 was defined as a concentration of the compound required to 50% relaxation. DMSO was used as a control.

[7] = human recombinant PDE3Acat, read-out: IC50(μmol/L) PDE3
[8] = IC50(μmol/L) PDE3, human recombinant PDE3Acat

T1 sequence (Q07343 330-659 limits assumed): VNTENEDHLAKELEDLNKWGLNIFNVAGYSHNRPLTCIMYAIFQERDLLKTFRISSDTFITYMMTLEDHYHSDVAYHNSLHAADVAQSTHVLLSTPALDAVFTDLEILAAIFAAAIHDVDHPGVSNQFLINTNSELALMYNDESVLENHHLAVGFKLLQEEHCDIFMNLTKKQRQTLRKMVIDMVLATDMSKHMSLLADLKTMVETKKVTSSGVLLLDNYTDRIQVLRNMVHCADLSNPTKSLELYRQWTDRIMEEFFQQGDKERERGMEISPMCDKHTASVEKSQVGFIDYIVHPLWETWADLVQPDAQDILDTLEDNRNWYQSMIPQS

Row | Compound | IC50 [1] | IC50 [2, 7] | IC50 [3] | IC50 [4] | inhibition in vivo at 1 mg/kg [5] | IC50 [6] | IC50 [2, 8] | inhibition in vivo at 0.1 mg/kg [5]
1 | COc1ccc(C2=NNC(=O)CC2C)c2cc(C(C)C)nn12 (centres unmarked) [Example 282] | 0.1 to 1 µmol/L | 1 to 10 µmol/L | 1 to 10 µmol/L | > 10 µmol/L | ≥ 90% |  |  | 
2 | COc1ccc(-c2ccc(=O)n(Cc3ccccc3)n2)c2c(C(=O)O)c(C(C)C)nn12 [Example 267, 2-benzyl-6-(3-carboxy-7-methoxy-2-isopropyl-pyrazolo[1,5-a]pyridine-4-yl)-3-(2H)-pyridazinone] | 1 to 10 µmol/L | > 10 µmol/L | > 10 µmol/L | > 10 µmol/L |  |  |  | 
3 | COc1ccc(-c2cc(C)c(=O)[nH]n2)c2cc(C(C)C)nn12 [Example 278, 6-(7-methoxy-2-isopropyl-pyrazolo[1,5-a]pyridine-4-yl)-4-methyl-3-(2H)-pyridazinone] | 0.1 to 1 µmol/L | > 10 µmol/L | > 10 µmol/L | > 10 µmol/L |  |  |  | 
4 | COc1ccc(C2=NNC(=O)C(C)C2)c2cc(C(C)C)nn12 (centres unmarked) [Example 283] | 0.1 to 1 µmol/L | > 10 µmol/L | > 10 µmol/L | > 10 µmol/L |  |  |  | 
5 | CCc1cc2c(C3=NNC(=O)CC3C)ccc(OC)n2n1 (centres unmarked) [Example 216] | 0.1 to 1 µmol/L |  | 1 to 10 µmol/L | > 10 µmol/L | ≥ 90% | 0.65 µmol/L | > 10 µmol/L | 
6 | COc1ccc(-c2ccc(=O)n(Cc3ccccc3)n2)c2cc(C(C)C)nn12 [Example 272] |  |  | 0.1 to 1 µmol/L |  |  |  |  | 
7 | CCc1cc2c(C3=NN(Cc4cccnc4)C(=O)CC3C)cc(Cl)cn2n1 (centres unmarked) [Example 312, 6-(6-chloro-2-ethyl-pyrazolo[1,5-a]pyridine-4-yl)-4,5-dihydro-5-methyl-2-(pyridine-3-ylmethyl)-3-(2H)-pyridazinone] | 1 to 10 µmol/L | > 10 µmol/L | > 10 µmol/L | > 10 µmol/L |  |  |  | 
8 | CCc1cc2c(C3=NNC(=O)CC3C)cc(Cl)cn2n1 (single isomer, unassigned; (+)) [Example 313, (+)-6-(6-chloro-2-ethyl-pyrazolo[1,5-a]pyridine-4-yl)-5-methyl-4,5-dihydro-3-(2H)-pyridazinone] | 1 to 10 µmol/L | 1 to 10 µmol/L | 0.1 to 1 µmol/L | > 10 µmol/L | ≥ 90% | 0.5 µmol/L |  | 
9 | COc1ccc(C2=NNC(=O)CC2C)c2cc(C(F)(F)F)nn12 (single isomer, unassigned; (+)) [Example 317, (+)-6-(7-methoxy-2-trifluoromethyl-pyrazolo[1,5-a]pyridine-4-yl)-5-methyl-4,5-dihydro-3-(2H)-pyridazinone] | < 1 µmol/L | 0.1 to 1 µmol/L | 1 to 10 µmol/L | > 10 µmol/L |  | 0.127 µmol/L |  | ≥ 90%
10 | COc1ccc(-c2ccc(=O)n(Cc3cccnc3)n2)c2cc(C(C)C)nn12 [Example 273] | 1 to 10 µmol/L | > 10 µmol/L | 1 to 10 µmol/L | > 10 µmol/L |  |  |  | 
11 | CCc1cc2c(C3=NNC(=O)CC3)cc(Cl)cn2n1 [Example 202] | > 10 µmol/L | > 10 µmol/L | 1 to 10 µmol/L | > 10 µmol/L | ≥ 90% |  |  | 
12 | CCc1cc2c(C3=NNC(=O)CC3C)ccc(OC)n2n1 (single isomer, unassigned; (-)) [Example 316, (−)-6-(2-ethyl-7-methoxy-pyrazolo[1,5-a]pyridine-4-yl)-5-methyl-4,5-dihydro-3-(2H)-pyridazinone] | < 1 µmol/L |  | > 10 µmol/L | > 10 µmol/L |  | 0.676 µmol/L | > 10 µmol/L | 
13 | CCc1cc2c(C3=NNC(=O)CC3)ccc(OC)n2n1 [Example 210, 6-(2-ethyl-7-methoxy-pyrazolo[1,5-a]pyridine-4-yl)-4,5-dihydro-3-(2H)-pyridazinone] | 1 to 10 µmol/L | > 10 µmol/L | > 10 µmol/L | > 10 µmol/L | ≥ 90% |  |  | 
14 | CCc1cc2c(C3=NNC(=O)CC3C)ccc(OC)n2n1 (single isomer, unassigned; (+)) [Example 315, (+)-6-(2-ethyl-7-methoxy-pyrazolo[1,5-a]pyridine-4-yl)-5-methyl-4,5-dihydro-3-(2H)-pyridazinone] | 1 to 10 µmol/L |  | 1 to 10 µmol/L | > 10 µmol/L |  |  | 1 to 10 µmol/L | ≥ 90%
15 | COc1ccc(C2=NN(Cc3ccccc3)C(=O)CC2)c2cc(C(C)C)nn12 [Example 284] |  |  | 1 to 10 µmol/L |  |  |  |  | 
16 | CCc1cc2c(C3=NNC(=O)CC3C)cc(Cl)cn2n1 (single isomer, unassigned; (-)) [Example 314, (−)-6-(6-chloro-2-ethyl-pyrazolo[1,5-a]pyridine-4-yl)-5-methyl-4,5-dihydro-3-(2H)-pyridazinone] | 0.1 to 1 µmol/L | > 10 µmol/L | > 10 µmol/L | > 10 µmol/L |  |  |  | 80 to 90%
17 | COC(=O)c1c(C(C)C)nn2c(OC)ccc(-c3ccc(=O)n(Cc4ccccc4)n3)c12 [Example 266, 2-benzyl-6-(7-methoxy-3-methoxycarbonyl-2-isopropyl-pyrazolo[1,5-a]pyridine-4-yl)-3-(2H)-pyridazinone] | 1 to 10 µmol/L | > 10 µmol/L | > 10 µmol/L | > 10 µmol/L |  |  |  | 
18 | COc1ccc(C2=NN(Cc3cccnc3)C(=O)CC2)c2cc(C(C)C)nn12 [Example 285] | 1 to 10 µmol/L | > 10 µmol/L | 1 to 10 µmol/L | > 10 µmol/L |  |  |  | 
19 | CCc1cc2c(-c3ccc(=O)[nH]n3)ccc(OC)n2n1 [Example 306] | 1 to 10 µmol/L | 1 to 10 µmol/L | > 10 µmol/L | > 10 µmol/L | ≥ 90% |  |  | 
20 | CCc1nn2cc(Cl)cc(C3=NNC(=O)CC3C)c2c1Cl (centres unmarked) [Example 203] | 0.1 to 1 µmol/L | > 10 µmol/L |  |  | 70 to 80% |  |  | 
21 | COc1ccc(C2=NNC(=O)CC2)c2cc(C(F)(F)F)nn12 [Example 209, 6-(7-methoxy-2-trifluoromethyl-pyrazolo[1,5-a]pyridine-4-yl)-4,5-dihydro-3-(2H)-pyridazinone] | 0.1 to 1 µmol/L | > 10 µmol/L |  |  |  |  |  | 80 to 90%

Source: patent US7763617B2, “Pyrazolopyridine-4-yl pyridazinone derivatives and addition salts thereof, and PDE inhibitors comprising the same derivatives or salts as active ingredient” (Kyorin Pharmaceutical Co., Ltd., priority 2005, dated 2010)
